Among the data in patent US10519134B2, “Pyrazole compounds and methods of making and using same” (Lundbeck La Jolla Research Center, Inc., priority 2015, dated 2019) are inhibition and IC50 values, retold here.

The target of experiment [1] is T1, MAGL (Mus musculus, UniProt O35678).
T1 construct: Proteomes (mouse brain membrane fraction or cell lysates); from tissue; host or cells: mouse brain membrane fraction (or cell lysates)
T1 sequence (O35678 1-303): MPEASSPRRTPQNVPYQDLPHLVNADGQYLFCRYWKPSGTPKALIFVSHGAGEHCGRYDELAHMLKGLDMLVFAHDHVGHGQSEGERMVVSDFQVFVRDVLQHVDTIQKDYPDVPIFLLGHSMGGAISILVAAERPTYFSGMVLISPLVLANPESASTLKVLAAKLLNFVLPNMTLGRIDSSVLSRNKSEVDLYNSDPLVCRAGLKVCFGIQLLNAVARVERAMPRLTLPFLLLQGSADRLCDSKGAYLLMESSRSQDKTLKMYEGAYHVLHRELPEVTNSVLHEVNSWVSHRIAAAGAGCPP
The experiment in a line: Mouse brain proteomes from inhibitor treated mice (oral gavage, sacrificed 4 h after administration). The following applies: read-out: MAGL % inh. 5 mg/kg. Format: in vivo. The method in brief: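 Brains were collected 4 h after oral gavage dosing of wild-type C57Bl/6J mice, vehicle polyethylene glycol. Proteomes from these brains were then analyzed for MAGL and other serine hydrolase activity.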

The target of experiment [2] is T1, MAGL. Nature of the experiment: In vitro competitive activity-based protein profiling (mouse), MAGL gel band. As to conditions: for IC50: mouse; for inhibition at 1 µM: read-out: MAGL % inh. 1 μM. Format: biochemical. The procedure, abridged: (§1)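 Mouse brain membrane proteome or cell lysate (1.0 mg/mL total protein) was preincubated with varying inhibitor concentrations for 30 min at 37 °C, then labelled for 30 min at 37 °C with FP-Rh or HT-01 (50 μM stock in DMSO). Activity was read as fluorescent band intensity after SDS-PAGE.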

In experiment [3] the target is T2, FAAH (Mus musculus, UniProt O08914).
T2 construct: Proteomes (mouse brain membrane fraction or cell lysates); from tissue; host or cells: mouse brain membrane fraction (or cell lysates)
T2 sequence (O08914 1-579): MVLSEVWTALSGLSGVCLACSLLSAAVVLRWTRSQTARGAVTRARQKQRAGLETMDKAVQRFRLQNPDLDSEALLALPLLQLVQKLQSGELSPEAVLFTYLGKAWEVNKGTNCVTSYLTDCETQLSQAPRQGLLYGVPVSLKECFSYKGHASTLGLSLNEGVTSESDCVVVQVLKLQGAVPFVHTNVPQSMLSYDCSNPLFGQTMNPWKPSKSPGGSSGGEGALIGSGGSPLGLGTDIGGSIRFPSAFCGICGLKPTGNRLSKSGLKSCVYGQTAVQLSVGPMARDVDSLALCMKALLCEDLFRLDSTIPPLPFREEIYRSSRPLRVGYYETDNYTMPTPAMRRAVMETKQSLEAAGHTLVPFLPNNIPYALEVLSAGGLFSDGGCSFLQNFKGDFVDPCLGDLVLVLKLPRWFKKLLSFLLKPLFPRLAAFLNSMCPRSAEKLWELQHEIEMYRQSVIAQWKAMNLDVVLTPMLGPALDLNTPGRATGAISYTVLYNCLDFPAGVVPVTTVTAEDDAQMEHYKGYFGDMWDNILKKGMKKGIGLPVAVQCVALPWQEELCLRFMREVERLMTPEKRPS
Nature of the experiment: In vitro competitive activity-based protein profiling (mouse), FAAH gel band. The experiment is classed as biochemical. The following applies: for IC50: mouse; for inhibition at 1 µM: read-out: FAAH % inh. 1 μM. The procedure, abridged:
as §1

As for `CC(=O)Nc1ccn(C(=O)N2CCN(Cc3ccc(Cl)cc3N3CC4COCC4C3)CC2)n1` (stereo not shown) [Example 60, N-(1-(4-(4-chloro-2-(dihydro-1H-furo[3,4-c]pyrrol-5(3H,6H,6aH)-yl)benzyl)piperazine-1-carbonyl)-1H-pyrazol-3-yl)acetamide], in experiment [1], the inhibition at 5 mg/kg lay in the range of 0 to 25%. The IC50 in experiment [2] is ≤ 0.1 µM; in experiment [3], 1 to 10 µM. The inhibition at 1 µM is ≥ 75% in experiment [2] and 0 to 25% in experiment [3].
Regarding `CC(=O)Nc1ccn(C(=O)N2CCC3(CCCN3Cc3cc(N4CCCC4)cc(C(F)(F)F)c3)CC2)n1` [Example 61, N-(1-(1-(3-(pyrrolidin-1-yl)-5-(trifluoromethyl)benzyl)-1,8-diazaspiro[4.5]decane-8-carbonyl)-1H-pyrazol-3-yl)acetamide], the inhibition at 5 mg/kg in experiment [1] lay in the range of 0 to 25%. In experiment [2], the IC50 was ≤ 0.1 µM and the inhibition at 1 µM was ≥ 75%. For the same compound, in experiment [3], the IC50 lay within 1 to 10 µM and the inhibition at 1 µM lay within 0 to 25%.
With `CC(=O)Nc1ccn(C(=O)N2CCC3(CCCN3Cc3cc(N4C5CCC4COC5)cc(C(F)(F)F)c3)CC2)n1` [Example 62, N-(1-(1-(3-(3-oxa-8-azabicyclo[3.2.1]octan-8-yl)-5-(trifluoromethyl)benzyl)-1,8-diazaspiro[4.5]decane-8-carbonyl)-1H-pyrazol-3-yl)acetamide], the inhibition at 5 mg/kg in experiment [1] is 0 to 25%. Besides, the concentration for half-maximal inhibition (IC50) was ≤ 0.1 µM in experiment [2] and 1 to 10 µM in experiment [3]. The inhibition at 1 µM in experiment [2] was ≥ 75%; in experiment [3], 0 to 25%.
As for `CC(=O)Nc1ccn(C(=O)N2CCC3(CCCN3Cc3cc(Cl)cc(N4CCCC4)c3)CC2)n1` [Example 63, N-(1-(1-(3-chloro-5-(pyrrolidin-1-yl)benzyl)-1,8-diazaspiro[4.5]decane-8-carbonyl)-1H-pyrazol-3-yl)acetamide], the inhibition at 5 mg/kg in experiment [1] fell in the range of 25 to 50%. Besides, in experiment [2], the concentration for half-maximal inhibition (IC50) is ≤ 0.1 µM and the inhibition at 1 µM was ≥ 75%. Moreover, in experiment [3], the 50% inhibitory concentration (IC50) lay within 1 to 10 µM and the inhibition at 1 µM fell in the range of 0 to 25%.
Turning to `CC(=O)Nc1ccn(C(=O)N2CCC3(CCCN3Cc3cc(N4CC5CN(C(C)=O)CC5C4)cc(C(F)(F)F)c3)CC2)n1` (stereo not shown) [Example 69, N-(1-(1-(3-(5-acetylhexahydropyrrolo[3,4-c]pyrrol-2(1H)-yl)-5-(trifluoromethyl)benzyl)-1,8-diazaspiro[4.5]decane-8-carbonyl)-1H-pyrazol-3-yl)acetamide], in experiment [1], the inhibition at 5 mg/kg was in the range of 0 to 25%. Also, in experiment [2], the IC50 was 0.1 to 1 µM and the inhibition at 1 µM is ≥ 75%. Also, in experiment [3], the half-maximal inhibitory concentration (IC50) is 1 to 10 µM and the inhibition at 1 µM fell in the range of 0 to 25%.
Take `CC(=O)Nc1ccn(C(=O)N2CCN(Cc3ccc(C(F)(F)F)cc3OC3CCN(C4CC4)CC3)CC2)n1` [Example 71, N-(1-(4-(2-(1-cyclopropylpiperidin-4-yloxy)-4-(trifluoromethyl)benzyl)piperazine-1-carbonyl)-1H-pyrazol-3-yl)acetamide]: the inhibition at 5 mg/kg in experiment [1] was 25 to 50%. The IC50 in experiment [2] was ≤ 0.1 µM; in experiment [3] it was 1 to 10 µM. The inhibition at 1 µM was ≥ 75% in experiment [2] and 0 to 25% in experiment [3].
The matching figures for `CC(=O)Nc1ccn(C(=O)N2CCN(Cc3cc(OC4CCN(C5CC5)CC4)cc(C(F)(F)F)c3)CC2)n1` [Example 72, N-(1-(4-(3-(1-cyclopropylpiperidin-4-yloxy)-5-(trifluoromethyl)benzyl)piperazine-1-carbonyl)-1H-pyrazol-3-yl)acetamide]: 0 to 25%, ≤ 0.1 µM, 1 to 10 µM, ≥ 75% and 0 to 25%.
Consider `CC(=O)Nc1ccn(C(=O)N2CCN(Cc3ccc(C(F)(F)F)cc3Oc3cncnc3)CC2)n1` [Example 73, N-(1-(4-(2-(pyrimidin-5-yloxy)-4-(trifluoromethyl)benzyl)piperazine-1-carbonyl)-1H-pyrazol-3-yl)acetamide], for which, in experiment [1], the inhibition at 5 mg/kg was 0 to 25%. In experiment [2], the half-maximal inhibitory concentration (IC50) is ≤ 0.1 µM and the inhibition at 1 µM was ≥ 75%. In experiment [3], the IC50 is 1 to 10 µM and the inhibition at 1 µM is 0 to 25%.
`CC(=O)Nc1ccn(C(=O)N2CCN(Cc3cc(Oc4cncnc4)cc(C(F)(F)F)c3)CC2)n1` [Example 74, N-(1-(4-(3-(pyrimidin-5-yloxy)-5-(trifluoromethyl)benzyl)piperazine-1-carbonyl)-1H-pyrazol-3-yl)acetamide]: in experiment [1], the inhibition at 5 mg/kg was in the range of 25 to 50%. For the same compound, the IC50 was ≤ 0.1 µM in experiment [2] and 1 to 10 µM in experiment [3]. The inhibition at 1 µM was ≥ 75% in experiment [2] and 0 to 25% in experiment [3].
For `CC(=O)Nc1ccn(C(=O)N2CCN(Cc3cc(OC4CCS(=O)(=O)CC4)cc(C(F)(F)F)c3)CC2)n1` [Example 78, N-(1-(4-(3-((1,1-dioxidotetrahydro-2H-thiopyran-4-yl)oxy)-5-(trifluoromethyl)benzyl)piperazine-1-carbonyl)-1H-pyrazol-3-yl)acetamide], in that order: 0 to 25%, ≤ 0.1 µM, 1 to 10 µM, ≥ 75% and 0 to 25%.
With `CC(=O)Nc1ccn(C(=O)N2CCN(Cc3ccc(C(F)(F)F)cc3OCC(=O)N3CCCC3)CC2)n1` [Example 79, N-(1-(4-(2-(2-oxo-2-(pyrrolidin-1-yl)ethoxy)-4-(trifluoromethyl)benzyl)piperazine-1-carbonyl)-1H-pyrazol-3-yl)acetamide], in experiment [1], the inhibition at 5 mg/kg lay in the range of 0 to 25%. For the same compound, in experiment [2], the IC50 was ≤ 0.1 µM and the inhibition at 1 µM was ≥ 75%. Besides, in experiment [3], the IC50 is 1 to 10 µM and the inhibition at 1 µM is 0 to 25%.
As to `CC(=O)Nc1ccn(C(=O)N2CCN(Cc3cc(OCC(=O)N4CCCC4)cc(C(F)(F)F)c3)CC2)n1` [Example 80, N-(1-(4-(3-(2-oxo-2-(pyrrolidin-1-yl)ethoxy)-5-(trifluoromethyl)benzyl)piperazine-1-carbonyl)-1H-pyrazol-3-yl)acetamide], the inhibition at 5 mg/kg in experiment [1] lay in the range of 0 to 25%. In experiment [2], the half-inhibitory concentration (IC50) was ≤ 0.1 µM and the inhibition at 1 µM is ≥ 75%. In experiment [3], the half-inhibitory concentration (IC50) lay within 1 to 10 µM and the inhibition at 1 µM is 0 to 25%.
In the case of `CC(=O)Nc1ccn(C(=O)N2CCC3(CCCN3Cc3ccc(C(F)(F)F)cc3OC3CCN(C4CC4)CC3)CC2)n1` [Example 81, N-(1-(1-(2-(1-cyclopropylpiperidin-4-yloxy)-4-(trifluoromethyl)benzyl)-1,8-diazaspiro[4.5]decane-8-carbonyl)-1H-pyrazol-3-yl)acetamide], in experiment [1], the inhibition at 5 mg/kg lay in the range of 0 to 25%. Also, in experiment [2], the IC50 is ≤ 0.1 µM and the inhibition at 1 µM was ≥ 75%. For the same compound, in experiment [3], the 50% inhibitory concentration (IC50) lay within 1 to 10 µM and the inhibition at 1 µM was 0 to 25%.
Take `CC(=O)Nc1ccn(C(=O)N2CCC3(CCCN3Cc3cc(OC4CCN(C5CC5)CC4)cc(C(F)(F)F)c3)CC2)n1` [Example 82, N-(1-(1-(3-(1-cyclopropylpiperidin-4-yloxy)-5-(trifluoromethyl)benzyl)-1,8-diazaspiro[4.5]decane-8-carbonyl)-1H-pyrazol-3-yl)acetamide]: in experiment [1], the inhibition at 5 mg/kg fell in the range of 0 to 25%. For the same compound, in experiment [2], the IC50 is ≤ 0.1 µM and the inhibition at 1 µM is ≥ 75%. Besides, in experiment [3], the 50% inhibitory concentration (IC50) lay in the range of 1 to 10 µM and the inhibition at 1 µM fell in the range of 0 to 25%.
